{"source": "paper PMC12632267", "about": "“Staphylococcus aureus encodes four differentially regulated pyruvate transporters” (Journal of Bacteriology, 2025)", "assay_in_all_cases": "[…]-pyruvate uptake, filter assay, complemented triple mutant", "assay_type_in_all_cases": "cell-based", "conditions_in_all_cases": "0.5 mM 14C-pyruvate, TSBG, 37 °C; labelled compound", "key": {"LrgAB": {"biological_target": "T1, LrgAB (Staphylococcus aureus, UniProt Q2FK07+Q2FK08)", "T1 construct": "gene lrgA; lrgAB operon, untagged; expressed from Pcad::lrgAB (pBK123) in S. aureus JE2 transporter mutants", "T1 sequence (Q2FK07 whole entry)": "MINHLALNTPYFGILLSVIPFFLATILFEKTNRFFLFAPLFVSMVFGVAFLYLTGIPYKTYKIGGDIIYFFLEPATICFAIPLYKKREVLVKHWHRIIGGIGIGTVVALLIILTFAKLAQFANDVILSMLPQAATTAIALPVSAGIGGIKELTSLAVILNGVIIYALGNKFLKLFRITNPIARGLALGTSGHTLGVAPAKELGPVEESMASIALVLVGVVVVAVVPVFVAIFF", "T1 sequence (Q2FK08 whole entry)": "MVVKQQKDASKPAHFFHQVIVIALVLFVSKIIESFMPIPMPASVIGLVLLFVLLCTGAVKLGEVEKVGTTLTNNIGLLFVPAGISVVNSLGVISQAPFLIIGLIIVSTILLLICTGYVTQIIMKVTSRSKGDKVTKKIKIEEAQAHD"}, "LctP": {"biological_target": "T2, LctP (Staphylococcus aureus, UniProt A0A0H2XEN8)", "T2 construct": "full-length 530 aa, untagged; expressed from Pcad::lctP (pBK123) in S. aureus JE2 delta lrgAB/lctP/lldP", "T2 sequence (A0A0H2XEN8 entry or part of it)": "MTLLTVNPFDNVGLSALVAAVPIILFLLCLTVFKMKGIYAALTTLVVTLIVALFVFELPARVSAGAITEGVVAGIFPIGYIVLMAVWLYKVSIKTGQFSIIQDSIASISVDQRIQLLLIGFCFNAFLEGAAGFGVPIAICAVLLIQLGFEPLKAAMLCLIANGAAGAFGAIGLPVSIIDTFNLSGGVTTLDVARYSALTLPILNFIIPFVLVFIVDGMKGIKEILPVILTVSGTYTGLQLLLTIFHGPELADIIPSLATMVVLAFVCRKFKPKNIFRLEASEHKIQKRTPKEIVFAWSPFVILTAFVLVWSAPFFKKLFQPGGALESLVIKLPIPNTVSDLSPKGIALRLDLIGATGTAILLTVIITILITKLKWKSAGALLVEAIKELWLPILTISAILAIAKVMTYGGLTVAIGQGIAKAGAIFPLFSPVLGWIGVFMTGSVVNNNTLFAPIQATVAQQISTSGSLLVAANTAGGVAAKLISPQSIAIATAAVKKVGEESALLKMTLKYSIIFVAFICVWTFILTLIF"}, "LldP": {"biological_target": "T3, LldP (Staphylococcus aureus, UniProt A0A0H2XGA6)", "T3 construct": "gene SAUSA300_2313; full-length 532 aa, untagged; expressed from Pcad::lldP (pBK123) in S. aureus JE2 delta lrgAB/lctP/lldP", "T3 sequence (A0A0H2XGA6 entry or part of it)": "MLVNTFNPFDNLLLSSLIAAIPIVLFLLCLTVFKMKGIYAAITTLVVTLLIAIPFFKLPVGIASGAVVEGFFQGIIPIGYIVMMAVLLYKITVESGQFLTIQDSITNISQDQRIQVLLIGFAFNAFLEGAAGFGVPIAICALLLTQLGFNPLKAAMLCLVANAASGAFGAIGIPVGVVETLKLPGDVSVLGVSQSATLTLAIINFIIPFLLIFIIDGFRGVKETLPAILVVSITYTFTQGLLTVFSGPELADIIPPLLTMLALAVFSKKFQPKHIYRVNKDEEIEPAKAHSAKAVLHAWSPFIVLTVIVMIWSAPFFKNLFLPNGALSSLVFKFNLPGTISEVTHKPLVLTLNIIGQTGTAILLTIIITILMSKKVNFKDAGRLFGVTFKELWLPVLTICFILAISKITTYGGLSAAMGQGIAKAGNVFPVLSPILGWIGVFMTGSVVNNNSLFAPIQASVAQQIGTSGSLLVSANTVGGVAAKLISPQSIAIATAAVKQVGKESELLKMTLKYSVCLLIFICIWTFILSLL"}}}
{"molecule": "CC(=O)C(=O)O", "note": "[pyruvate]", "values": [{"measurement": "14C-pyruvate uptake, filter assay, complemented triple mutant", "setting": "LrgAB", "value": "lctP playing the most significant role under these conditions, followed by lldP, and then lrgAB"}, {"measurement": "14C-pyruvate uptake, filter assay, complemented triple mutant", "setting": "LctP", "value": "all three of the putative pyruvate transporters contribute to pyruvate import, with lctP playing"}, {"measurement": "14C-pyruvate uptake, filter assay, complemented triple mutant", "setting": "LldP", "value": "lctP playing the most significant role under these conditions, followed by lldP, and then lrgAB"}]}
